Structures can show the parent of a compound that is named as a salt.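 How tested: cells in 96-well plates exposed to compound for 48 hours at five concentrations. The concentration for 50% growth inhibition is given as GI50.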 The source made the active and inactive calls. No stated cut-off is given here; in the data, active = GI50 up to about 1.1 µM and inactive = higher.
Assays:
Assay in all cases: NCI-60 cell line screen, 48 h
MOLT-4 = test system: MOLT-4
SF-539 = test system: SF-539
MDA-MB-435 = test system: MDA-MB-435
EKVX = test system: EKVX
MDA-N = test system: MDA-N
UO-31 = test system: UO-31
DU-145 = test system: DU-145
T47D = test system: T47D
M14 = test system: M14
TK-10 = test system: TK-10
SK-MEL-28 = test system: SK-MEL-28
A549 = test system: A549
OVCAR-3 = test system: OVCAR-3
SN12C = test system: SN12C
BT-549 = test system: BT-549
SF-268 = test system: SF-268
Malme-3M = test system: Malme-3M

Measured: GI50

N#Cc1nnn(-c2ccc(Br)cc2)c1O
inactive: MOLT-4 10 µM | SF-539 > 100 µM | MDA-MB-435 > 100 µM | EKVX > 100 µM | MDA-N 46.9 µM | UO-31 > 100 µM | DU-145 > 100 µM | T47D > 100 µM | M14 > 100 µM | TK-10 > 100 µM | SK-MEL-28 > 100 µM | A549 > 100 µM | OVCAR-3 > 100 µM | SN12C > 100 µM | BT-549 > 100 µM | SF-268 > 100 µM | Malme-3M > 100 µM

Cc1cc(C)c(/C=C2\C(=O)Nc3ccccc32)[nH]1 [SEMAXANIB]
inactive: MOLT-4 > 78.2 µM | SF-539 > 100 µM | MDA-MB-435 > 96.4 µM | EKVX 2.81 µM | MDA-N > 95.9 µM | UO-31 34.5 µM | DU-145 > 83 µM | T47D > 100 µM | M14 69 µM | TK-10 > 100 µM | SK-MEL-28 > 100 µM | A549 > 65.3 µM | OVCAR-3 > 100 µM | SN12C > 100 µM | BT-549 > 100 µM | SF-268 > 100 µM | Malme-3M > 58.5 µM

CCCCOC(=O)CC(CC(=O)OCCCC)(OC(C)=O)C(=O)OCCCC [ACETYLTRIBUTYL CITRATE]
inactive: MOLT-4 17.2 µM | SF-539 > 100 µM | MDA-MB-435 > 178 µM | EKVX > 101 µM | MDA-N > 170 µM | UO-31 39.6 µM | DU-145 > 106 µM | T47D 48.4 µM | M14 > 200 µM | TK-10 > 200 µM | SK-MEL-28 > 157 µM | A549 96.8 µM | OVCAR-3 > 200 µM | SN12C > 164 µM | BT-549 > 200 µM | SF-268 > 200 µM | Malme-3M 197 µM

O=S(=O)(O)c1ccc2cc(/N=N\c3cc(S(=O)(=O)O)c4cccnc4c3O)ccc2c1
inactive: MOLT-4 > 100 µM | SF-539 > 100 µM | MDA-MB-435 > 100 µM | EKVX > 100 µM | MDA-N > 100 µM | UO-31 > 100 µM | DU-145 > 100 µM | T47D > 100 µM | M14 > 100 µM | TK-10 > 100 µM | SK-MEL-28 > 100 µM | A549 > 100 µM | OVCAR-3 > 100 µM | BT-549 > 100 µM | SF-268 > 100 µM | Malme-3M > 100 µM

— ChEMBL document CHEMBL1201862, “PubChem BioAssay data set” (2004)
